Results from patent US5378692A, “Method of lowering lipids” (Senju Pharmaceutical Co., Ltd., priority 1992, dated 1995).

Tests used:
[1] = system: rat alcoholic fatty liver; details: male Wistar rats; for TG (liver triglyceride): 1000 mg/5 ml/kg p.o., 38% ethyl alcohol 10 ml/kg p.o. 1 hour later, liver excised 6 hours after alcohol, mean ± S.E., n = 8-9
Procedure: Male Wistar rats, 7 weeks old, were used in fasted state.
The experiment was performed in a control group, drug treatment groups and a normal group, each consisting of 8 to 9 animals.
The treatment groups were orally dosed with GSH and DCE-Et-GS-iPr, each dissolved in distilled water, at the dose level of 1000 mg/5 ml/kg. The control group received 5 ml/kg of distilled water p.o. The normal group was also provided.
One hour after administration of the test substance, 10 ml/kg of 38% ethyl alcohol was orally administered to the animals for induction of fatty liver. The liver was excised 6 hours after administration of ethyl alcohol and the triglyceride (TG) was determined by the acetylacetone method.

[2] = system: rat hypertriglyceridemia; assay: Effect on rat hypertriglyceridemia (Intralipid-induced), serum triglyceride; assay type: in vivo; details: male Wistar rats; for TG (serum triglyceride): 200 mg/2 ml/kg i.p., Intralipid 2 ml/kg i.v. 0.5 hour after dosing, blood 30 min after injection, mean ± S.E., n = 8-9; for triglyceride (TG) lowering effect (in words): 200 mg/kg i.p., versus control
Procedure: Intralipid (Otsuka Pharmaceutical Co., Ltd.) was used for induction of hypertriglyceridemia in rats.
The treatment groups were intraperitoneally dosed with glutathione (hereinafter referred to as GSH), S-(diethyl α, β-dicarboxyethyl)glutathione (hereinafter, DCE-Et-GS), S-(diethyl α, β-dicarboxyethyl)glutathione isopropyl ester (hereinafter, DCE-Et-GS-iPr) and S-(α, β-dicarbamoylethyl)glutathione (hereinafter, DCE-NH2 -GS), each dissolved in physiological saline. The dose was invariously 200 mg/2 ml/kg. The control group received 2 ml/kg of physiological saline i.p. The normal group was also provided.
Intralipid 2 ml/kg was injected into the tail vein 0.5 hour after administration of the test substance. Thirty minutes after the injection, the blood was collected and the serum triglyceride (TG) was determined.

[3] = system: rat streptozotocin diabetes; assay: Effect on rat streptozotocin diabetes, blood lipids; assay type: in vivo; details: STZ-diabetic male SD rats, 100 mg/2 ml/kg i.p. once a day, mean, n = 4-7; for Total Cholesterol Week 4: week 4, tail blood; for Total Cholesterol Week 8: week 8, tail blood; for Total Cholesterol Week 10: week 10, abdominal aorta blood
Procedure: Using male 4-week-old SD rats, streptozotocin (STZ), 70 mg/kg, was injected into the tail vein to construct a diabetes model. As test substances, DCE-GS, DCE-Et-GS and DCE-Et-GS-iPr, each dissolved in physiological saline, were respectively administered intraperitoneally in doses of 100 mg/2 ml/kg once a day. The control group received physiological saline, 2 ml/kg, i.p. The normal group was also provided.
At weeks 4 and 8 of treatment, the blood was collected from the tail and the total cholesterol was determined. Furthermore, at week 10, the blood was collected from the abdominal aorta for blood biochemical tests.

Compound	TG (liver triglyceride) [1]	triglyceride (TG) lowering effect (in words) ([1]; 1000 mg/kg p.o., versus control)	TG (serum triglyceride) [2]	triglyceride (TG) lowering effect (in words) [2]	Total Cholesterol Week 4 [3]	Total Cholesterol Week 8 [3]	Total Cholesterol Week 10 [3]	TG (blood triglycerides) ([3]; week 10)	VLDL ([3]; week 10)	β-lipoproteins ([3]; week 10)
CCOC(=O)CC(SC[C@H](NC(=O)CC[C@H](N)C(=O)O)C(=O)NCC(=O)OC(C)C)C(=O)OCC (stereo partly drawn) [DCE-Et-GS-iPr, S-(diethyl α, β-dicarboxyethyl)glutathione isopropyl ester]	10.7 ± 0.3 mg/g liver	significant triglyceride (TG) lowering effect	66.1 ± 11 mg/dL	Significant triglyceride (TG) lowering effects	113.9 mg/dL	110.5 mg/dL	120 mg/dL	404 mg/dL	106 mg/dL	818 mg/dL
N[C@@H](CCC(=O)N[C@@H](CSC(CC(=O)O)C(=O)O)C(=O)NCC(=O)O)C(=O)O (stereo partly drawn) [DCE-GS, S-(α, β-dicarboxyethyl)glutathione]	–	–	–	–	109.8 mg/dL	118.2 mg/dL	95 mg/dL	406 mg/dL	–	759 mg/dL
NC(=O)CC(SC[C@H](NC(=O)CC[C@H](N)C(=O)O)C(=O)NCC(=O)O)C(N)=O (stereo partly drawn) [DCE-NH2 -GS, S-(α, β-dicarbamoylethyl)glutathione]	–	–	72.4 ± 6 mg/dL	Significant triglyceride (TG) lowering effects	–	–	–	–	–	–
N[C@@H](CCC(=O)N[C@@H](CS)C(=O)NCC(=O)O)C(=O)O [GSH, glutathione, reference compound]	13.0 ± 0.4 mg/g liver	–	150.4 ± 12 mg/dL	–	–	–	–	–	–	–
